Source: US8476448B2, “Solid form of 4-[[(6-chloropyridin-3-yl)methyl](2,2-difluoroethyl)amino]furan-2(5H)-one” (Bayer Cropscience AG, priority 2009, dated 2013)

Assay: Stability of the novel solid form on prolonged storage
Format: physicochemical

O=C1C=C(N(Cc2ccc(Cl)nc2)CC(F)F)CO1 [novel solid form, 4-[[(6-chloropyridin-3-yl)methyl](2,2-difluoroethyl)amino]furan-2(5H)-one]
thermodynamic stability / conversion into another form: not converted into another form
